Our source for the IC50 values is patent US10703764B2, “Benzopiperazine compositions as BET bromodomain inhibitors” (FORMA Therapeutics, Inc., priority 2013, dated 2020).

One assay concerns MV4-11 cells. The experiment in a line: Oncology cell growth assay (3-day proliferation, CellTiter-Glo). The format is cell-based. To be noted: Homo sapiens, MV4-11, 72 h, AML cell line MV4-11, 72 hours, compounds grouped by IC50 range, read-out: MV4-11 IC50 (inhibition of proliferation, gIC50). The gist of the method: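 Compounds were serially diluted 3-fold in DMSO, giving final well concentrations from 10 down to 0.0045 μM. MV4-11 cells were then seeded at 3000 cells/well in RPMI 1640 with 10% FBS and incubated 72 hours. CellTiter-Glo signal was measured and gIC50 obtained by four-parameter logistic regression.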

The target in another assay is T1, BRD4 BD1 (Homo sapiens, UniProt O60885).
T1 construct: made in house
In words: AlphaScreen binding assay, BRD4 Bromodomain 1. The gist of the method: (§1)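 An AlphaScreen competition format was used with His-BRD4 BD1 or BD2 and biotin-H4 K5/8/12/16-acetyl peptide, each at matched final levels of 50 nM (BD1) or 100 nM (BD2). Incubation in HEPES/NaCl buffer with 0.1% BSA and 0.01% Triton X-100 ran ≥1 h before IC50 determination.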

A further assay addresses T2, BRD4 BD2 (Homo sapiens, UniProt O60885).
T2 construct: made in house
In words: AlphaScreen binding assay, BRD4 Bromodomain 2. The gist of the method:
as §1

Regarding `CC(=O)N1c2ccc(-c3ccccc3)cc2N(C(=O)c2ccco2)C[C@@H]1C` [Example I-804], the IC50 in the assay on MV4-11 cells was 100 to 500 nM; on BRD4 BD1 it was 1000 to 10000 nM; on BRD4 BD2 it was less than 50 nM.
The corresponding values for `CC(=O)Nc1ccc2c(c1)N(C(C)=O)[C@@H](C)CN2C(=O)OC(C)C` [Example I-200, Isopropyl (S)-6-acetamido-4-acetyl-3-methyl-3,4-dihydroquinoxaline-1(2H)-carboxylate] are greater than 500 nM, 1000 to 10000 nM and 50 to 500 nM.
The corresponding values for `CC(=O)N1c2ccc(-c3cnn(CCO)c3)cc2N(C(=O)Oc2ccc(F)cc2)C[C@@H]1C` [Example I-1015] are 100 to 500 nM, 100 to 1000 nM and 50 to 500 nM.
On to `CC(=O)N1c2ccc(-c3ccc(N4CCCC4=O)cc3)cc2N(C(=O)C2CCC2)C[C@@H]1C` [Example I-1132], for which the IC50 in the assay with MV4-11 cells is 100 to 500 nM; on BRD4 BD1, 1000 to 10000 nM; at BRD4 BD2, 50 to 500 nM.
The corresponding values for `CC(=O)N1c2ccc(-c3ccc(N4CCOCC4)cc3)cc2N(C(=O)OC2CCOCC2)C[C@@H]1C` [Example I-1230] are 100 to 500 nM, 100 to 1000 nM and 50 to 500 nM.
In the case of `CC(=O)N1c2ccc(-c3ccc4c(c3)N(S(C)(=O)=O)CCC4)cc2N(C(=O)OC(C)C)C[C@@H]1C` [Example I-1185], the IC50 with MV4-11 cells is 100 to 500 nM; at BRD4 BD1, 100 to 1000 nM; at BRD4 BD2, 50 to 500 nM.
As to `CC(=O)N1c2ccc(-c3cn[nH]c3)cc2N(C(=O)c2ccco2)C[C@@H]1C` [Example I-13, (S)-1-(4-(furan-2-carbonyl)-2-methyl-6-(1H-pyrazol-4-yl)-3,4-dihydro-quinoxalin-1(2H)-yl)ethanone], the IC50 was 100 to 500 nM in the assay with MV4-11 cells, 100 to 1000 nM on BRD4 BD1 and less than 50 nM at BRD4 BD2.
With `CC(=O)N1c2ccc(-c3ccc(F)c(S(C)(=O)=O)c3)cc2N(C(=O)C2CCC2)C[C@@H]1C` [Example I-1099], the figures for the IC50 in the assay on MV4-11 cells, at BRD4 BD1 and on BRD4 BD2 were greater than 500 nM, 1000 to 10000 nM and 50 to 500 nM, respectively.
On the same counts, the results for `COC(=O)N1c2ccc(-c3cnn(C4CC4)c3)cc2N(C(=O)Oc2ccccn2)C[C@@H]1C` [Example I-1323] are 100 to 500 nM, 100 to 1000 nM and less than 50 nM.
Consider `CC(=O)N1c2ccc(-c3cnn(Cc4ccnn4C)c3)cc2N(C(=O)OC(C)C)C[C@@H]1C` [Example I-680], for which the IC50 was 100 to 500 nM in the assay on MV4-11 cells, 100 to 1000 nM at BRD4 BD1 and 50 to 500 nM on BRD4 BD2.
Regarding `CC(=O)N1c2ccc(-c3cccc(S(C)(=O)=O)c3)cc2N(C(=O)C2CC2)C[C@@H]1C` [Example I-1050], the IC50 with MV4-11 cells is greater than 500 nM; at BRD4 BD1 it was 1000 to 10000 nM; on BRD4 BD2, 50 to 500 nM.
For `CC(=O)N1c2ccc(-c3cnn(Cc4cnccn4)c3)cc2N(C(=O)OC(C)C)C[C@@H]1C` [Example I-116, (S)-isopropyl 4-acetyl-3-methyl-7-(1-(pyrazin-2-ylmethyl)-1H-pyrazol-4-yl)-3,4-dihydroquinoxaline-1(2H)-carboxylate], the IC50 was in the range of 100 to 500 nM with MV4-11 cells, 100 to 1000 nM at BRD4 BD1 and 50 to 500 nM on BRD4 BD2.
The corresponding values for `CC(=O)N1c2ccc(-c3cnn(C4CC4)c3)cc2N(C(=O)OCC(F)(F)F)C[C@@H]1C` [Example I-79, (S)-2,2,2-trifluoroethyl 4-acetyl-7-(1-cyclopropyl-1H-pyrazol-4-yl)-3-methyl-3,4-dihydroquinoxaline-1(2H)-carboxylate] are 100 to 500 nM, 100 to 1000 nM and 50 to 500 nM.
On the same counts, the results for `COC(=O)N1c2ccc(-c3cnn(CC4CC4)c3)cc2N(C(=O)OC(C)C)C[C@@H]1C` [Example I-325] are greater than 500 nM, 100 to 1000 nM and 50 to 500 nM.
The corresponding values for `CC(=O)N1c2ccc(-c3cnn(C4CCCS(=O)(=O)C4)c3)cc2N(C(=O)OC2CCOCC2)C[C@@H]1C` (stereo partly drawn) [Example I-161, oxan-4-yl (3S)-4-acetyl-7-[1-(1,1-dioxo-1λ^6-thian-3-yl)-1H-pyrazol-4-yl]-3-methyl-1,2,3,4-tetrahydroquinoxaline-1-carboxylate] are 100 to 500 nM, 100 to 1000 nM and 50 to 500 nM.
Consider `CC(=O)N1c2ccc(-c3cnn(CC#N)c3)cc2N(C(=O)OC(C)C)C[C@@H]1C` [Example I-607], for which the IC50 in the assay on MV4-11 cells lay within 100 to 500 nM; at BRD4 BD1 it was 100 to 1000 nM; on BRD4 BD2, 50 to 500 nM.
For `COc1ccc(F)cc1OC(=O)N1C[C@H](C)N(C(C)=O)c2ccc(-c3cnn(C4CC4)c3)cc21` [Example I-1201], the IC50 is 100 to 500 nM in the assay on MV4-11 cells, 100 to 1000 nM on BRD4 BD1 and less than 50 nM on BRD4 BD2.
Regarding `CC(=O)N1c2ccc(-c3ccc(C(=O)N4CCNCC4)cc3)cc2N(C(=O)OC(C)C)C[C@@H]1C` [Example I-557], the IC50 in the assay on MV4-11 cells was in the range of 100 to 500 nM; on BRD4 BD1, 100 to 1000 nM; on BRD4 BD2, 50 to 500 nM.
As to `CC(=O)N1c2ccc(-c3cnn(C4CCOCC4)c3)cc2N(C(=O)OC2CC(F)(F)C2)C[C@@H]1C` [Example I-4, (S)-3,3-difluorocyclobutyl 4-acetyl-3-methyl-7-(1-(tetrahydro-2H-pyran-4-yl)-1H-pyrazol-4-yl)-3,4-dihydroquinoxaline-1(2H)-carboxylate], the IC50 with MV4-11 cells was 100 to 500 nM; on BRD4 BD1 it was 100 to 1000 nM; at BRD4 BD2 it was 50 to 500 nM.
The corresponding values for `COc1ccc(OC(=O)N2C[C@H](C)N(C(C)=O)c3ccc(-c4cnn(C5CC5)c4)cc32)cn1` [Example I-1199] are 100 to 500 nM, 100 to 1000 nM and 50 to 500 nM.
The corresponding values for `CCOC(=O)N1C[C@H](C)N(C(C)=O)c2ccc(-c3ccc(NS(C)(=O)=O)c(C)c3)cc21` [Example I-1173] are 100 to 500 nM, 100 to 1000 nM and 50 to 500 nM.
The corresponding values for `CC(=O)N1c2ccc(-c3cnn(C4CC4)c3)cc2N(C(=O)Oc2ccc(F)c(C)c2)C[C@@H]1C` [Example I-266] are 100 to 500 nM, 100 to 1000 nM and less than 50 nM.
Consider `CC(=O)N1c2ccc(-c3cnn(C4CCCS(=O)(=O)C4)c3)cc2N(C(=O)C2CC2)C[C@@H]1C` (stereo partly drawn) [Example I-1310], for which the IC50 in the assay on MV4-11 cells is greater than 500 nM; on BRD4 BD1 it was 100 to 1000 nM; on BRD4 BD2, 50 to 500 nM.
On the same counts, the results for `CC(=O)N1c2ccc(-c3ccc(N)nc3)cc2N(C(=O)c2ccco2)C[C@@H]1C` [Example I-295] are 100 to 500 nM, 1000 to 10000 nM and less than 50 nM.
In the case of `COc1ccc(OC(=O)N2C[C@H](C)N(C(C)=O)c3ccc(-c4cnn(C5CC5)c4)cc32)c(F)c1` [Example I-523], the IC50 is less than 100 nM with MV4-11 cells, 100 to 1000 nM on BRD4 BD1 and 50 to 500 nM on BRD4 BD2.
The corresponding values for `CC(=O)N1c2ccc(-c3cnn(CC(F)F)c3)cc2N(C(=O)C2CC2)C[C@@H]1C` [Example I-651] are greater than 500 nM, 100 to 1000 nM and 50 to 500 nM.
On the same counts, the results for `CC(=O)N1c2ccc(-c3ccc(S(=O)(=O)C(C)C)cc3)cc2N(C(=O)C2CC2)C[C@@H]1C` [Example I-1062] are greater than 500 nM, 1000 to 10000 nM and 50 to 500 nM.
`CC(=O)N1c2ccc(-c3ccc(S(N)(=O)=O)c(F)c3)cc2N(C(=O)C2CC2)C[C@@H]1C` [Example I-1297]: the figures for the IC50 in the assay with MV4-11 cells, at BRD4 BD1 and at BRD4 BD2 were greater than 500 nM, 1000 to 10000 nM and 50 to 500 nM, respectively.
As for `CC(=O)N1c2ccc(-c3cnn(C4CS(=O)(=O)C4)c3)cc2N(C(=O)OC2CCCCC2)C[C@@H]1C` [Example I-1308], the values for the IC50 with MV4-11 cells, at BRD4 BD1 and on BRD4 BD2 were 100 to 500 nM, 100 to 1000 nM and less than 50 nM, respectively.
With `CC(=O)N1c2ccc(-c3cnn(C4CC4)c3)cc2N(C(=O)Oc2cccc3ncccc23)C[C@@H]1C` [Example I-1191], the figures for the IC50 in the assay on MV4-11 cells, on BRD4 BD1 and at BRD4 BD2 were 100 to 500 nM, 100 to 1000 nM and less than 50 nM, respectively.
On the same counts, the results for `CC(=O)N1c2ccc(-c3ccc4nccn4n3)cc2N(C(=O)c2ccco2)C[C@@H]1C` [Example I-398] are 100 to 500 nM, 100 to 1000 nM and 50 to 500 nM.
For `CC(=O)N1c2ccc(-c3ccc(C(=O)NCCN(C)C)cc3)cc2N(C(=O)OC(C)C)C[C@@H]1C` [Example I-533], the IC50 in the assay with MV4-11 cells was less than 100 nM; on BRD4 BD1, 100 to 1000 nM; at BRD4 BD2 it was 50 to 500 nM.
In the case of `CC(=O)N1c2ccc(-c3ccc(S(C)(=O)=O)c(F)c3)cc2N(C(=O)OC(C)C)C[C@@H]1C` [Example I-1085], the IC50 is greater than 500 nM in the assay with MV4-11 cells, 1000 to 10000 nM on BRD4 BD1 and 50 to 500 nM on BRD4 BD2.
The corresponding values for `CC(=O)N1c2cc(F)c(-c3cnn(C4CC4)c3)cc2N(C(=O)OC(C)C)C[C@@H]1C` [Example I-207, Isopropyl (S)-4-acetyl-7-(1-cyclopropyl-1H-pyrazol-4-yl)-6-fluoro-3-methyl-3,4-dihydroquinoxaline-1(2H)-carboxylate] are greater than 500 nM, 100 to 1000 nM and 50 to 500 nM.
On the same counts, the results for `CC(=O)N1c2ccc(-c3cnn(C4CCOCC4)c3)cc2N(C(=O)OC(C)C)C[C@@H]1C` [Example I-307] are 100 to 500 nM, 100 to 1000 nM and 50 to 500 nM.
In the case of `CC(=O)N1c2ccc(-c3ccc(C)s3)cc2N(C(=O)c2ccco2)C[C@@H]1C` [Example I-872], the IC50 was 100 to 500 nM with MV4-11 cells, 100 to 1000 nM on BRD4 BD1 and less than 50 nM at BRD4 BD2.
